Like-named read-outs stand apart in the source and are kept apart here. Blank lines part the entries; values can stand above or below the compound they belong to.
Legend:
[1] = biological target: T1, Angiotensin-I Converting Enzyme from rabbit lung (Oryctolagus cuniculus, UniProt P12822); test: ACE-inhibitory (ACEI) activity, fluorimetric assay with o-Abz-Gly-p-Phe(NO2)-Pro substrate; assay type: biochemical; conditions: for change of ACEI activity on structural change, vs. luteolin: compared with luteolin (Figure 3); for inhibition at 100 µM / inhibition at 500 µM: 0.5 h; for inhibition at 100 µM: mean of three experiments (Figure 2A); for relative IC50 ratio: IC50 relative to luteolin (1); for IC50: technical and biological triplicate, read-out: IC50 value (concentration that inhibits ACE activity by 50%)
T1 construct: Angiotensin-I Converting Enzyme from rabbit lung; purchased Sigma (Barcelona, Spain); host or cells: rabbit lung tissue
T1 sequence (P12822 34-1310): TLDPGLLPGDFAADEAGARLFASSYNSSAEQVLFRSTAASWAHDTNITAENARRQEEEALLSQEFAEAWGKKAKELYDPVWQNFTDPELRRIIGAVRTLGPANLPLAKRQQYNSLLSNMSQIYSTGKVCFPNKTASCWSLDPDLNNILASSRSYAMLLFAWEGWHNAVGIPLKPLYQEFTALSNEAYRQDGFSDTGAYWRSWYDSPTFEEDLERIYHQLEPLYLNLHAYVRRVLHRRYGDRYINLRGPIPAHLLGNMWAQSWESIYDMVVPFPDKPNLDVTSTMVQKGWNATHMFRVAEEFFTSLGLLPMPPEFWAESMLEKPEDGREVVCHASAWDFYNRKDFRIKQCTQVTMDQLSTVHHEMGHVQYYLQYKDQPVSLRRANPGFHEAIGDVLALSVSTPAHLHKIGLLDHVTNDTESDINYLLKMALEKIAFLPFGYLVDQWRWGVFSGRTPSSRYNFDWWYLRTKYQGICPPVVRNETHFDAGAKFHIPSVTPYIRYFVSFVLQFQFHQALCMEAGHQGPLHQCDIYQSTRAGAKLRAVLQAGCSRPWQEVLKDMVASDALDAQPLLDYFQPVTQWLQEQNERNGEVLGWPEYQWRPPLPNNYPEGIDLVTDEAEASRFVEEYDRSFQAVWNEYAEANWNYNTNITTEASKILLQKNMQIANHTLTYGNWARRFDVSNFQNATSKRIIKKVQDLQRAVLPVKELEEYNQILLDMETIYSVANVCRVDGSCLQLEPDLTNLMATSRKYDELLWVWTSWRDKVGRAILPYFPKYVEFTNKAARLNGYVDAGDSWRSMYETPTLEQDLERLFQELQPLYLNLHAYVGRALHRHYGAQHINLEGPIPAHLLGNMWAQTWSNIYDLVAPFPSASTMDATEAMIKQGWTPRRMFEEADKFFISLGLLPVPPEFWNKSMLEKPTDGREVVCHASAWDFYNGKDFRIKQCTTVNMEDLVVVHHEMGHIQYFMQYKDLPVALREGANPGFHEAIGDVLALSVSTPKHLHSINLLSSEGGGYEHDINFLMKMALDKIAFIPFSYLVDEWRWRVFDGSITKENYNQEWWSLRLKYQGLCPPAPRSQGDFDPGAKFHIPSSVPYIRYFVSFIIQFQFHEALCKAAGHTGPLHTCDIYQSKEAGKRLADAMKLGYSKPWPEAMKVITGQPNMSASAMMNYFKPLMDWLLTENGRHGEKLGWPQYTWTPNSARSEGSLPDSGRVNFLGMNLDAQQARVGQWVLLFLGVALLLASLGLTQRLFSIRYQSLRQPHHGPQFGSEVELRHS
Source text: o-aminobenzoylglycyl-p-nitro-phenylalanylproline (o-ABz-Gly-Phe(NO2)-Pro) was purchased from Bachem Feinchemikalien (Bubendorf, Switzerland). Five units of Angiotensin-I Converting Enzyme from rabbit lung and ZnCl2 were obtained from Sigma (Barcelona, Spain). […] Flavonoids were solubilized in dimethyl sulfoxide (DMSO) and prepared daily. In all experiments, the final concentration of DMSO was 0.4%. Distilled water was obtained from a Millipore Milli-Q® system.
Flavonoid solutions (100 and 500 µM) were prepared in DMSO (0.4%) daily. The 0.1 U/mL ACE solution stock was prepared in glycerol: water (1∶1), aliquoted and stored at −20°C. The 0.1 µM ZnCl2 stock solution was prepared and stored at 4°C. The ACE working solution was prepared daily by diluting it in 150 mM Tris buffer (pH 8.3) containing 0.1 µM ZnCl2.
ACEI activity was measured by a fluorimetric assay following the method of Sentandreu and Toldrá [43] with some modifications. […] Fluorescence was measured after 30 min in 96-well microplates (Thermo Scientific, Rochester, NY) using a multiscan microplate fluorimeter (Biotek. FL×800). Microplates (Thermo Scientific, Rochester, NY) were used in this assay. The excitation and emission wavelengths were 360 and 430 nm, respectively. The activity of each sample was tested in technical and biological triplicate.
The ACEI activity was calculated using the following formula: [drawing 1] where A is the fluorescence without the flavonoid solution, B is the fluorescence without ACE and C is the fluorescence in the presence of both ACE and the flavonoid solution. A flavonoid solution of 500 µM was selected on the basis of previous studies, [35], and the concentration of 100 µM was chosen because it is within the physiological concentration range. […] The IC50 of each selected flavonoid was tested in technical and biological triplicate. The results from three experiments are expressed as the mean ± SD and were performed in different platelet samples.

ACE N domain = system: ACE N domain; set-up: method as in PMID 11303049; conditions: ACE inhibition with N-domain-specific inhibitor; cited from earlier work
[2] = 100 µM flavonoid, purified lung ACE, 37°C, 30 min, read-out: percentage of ACE inhibition
[3] = 500 µM flavonoid, purified lung ACE, 37°C, 30 min, mean of three experiments (Figure 2B), read-out: percentage of ACE inhibition
[4] = read-out: percentage of ACE inhibition, 100 µM flavonoid, purified lung ACE, 37°C, 30 min

Compound: O=c1cc(-c2ccc(O)cc2)oc2cc(O)cc(O)c12.[K] [Apigenin K]
- relative IC50 ratio [1]: 8.52
- IC50 [1]: 196 µM

Compound: Oc1cc(O)c2c(c1)O[C@H](c1ccc(O)c(O)c1)[C@@H](O)C2 [Catechin]
- inhibition at 100 µM [1, 2]: 7.5%
- inhibition at 500 µM [1, 3]: 29%

Compound: O=c1cc(-c2ccc(O)cc2)oc2cc(O)cc(O)c12 [Apigenin]
- change of ACEI activity on structural change, vs. luteolin ([1]; 100 µM): −57%
- reduction of ACEI activity relative to luteolin ([1]; 100 µM): 57%
- inhibition at 100 µM [1, 2]: 24.7%

Compound: O=C1C[C@@H](c2ccc(O)cc2)Oc2cc(O)cc(O)c21.[K] [Naringenin K]
- percentage of ACE inhibition ([1]; 500 µM flavonoid, purified lung ACE, 37°C, 30 min, mean of three experiments (Figure 2B), listed as narigenin K): higher than 30%

Compound: COc1ccc(-c2cc(=O)c3c(O)cc(O[C@@H]4O[C@H](CO[C@@H]5O[C@@H](C)[C@H](O)[C@@H](O)[C@H]5O)[C@@H](O)[C@H](O)[C@H]4O)cc3o2)cc1O [Diosmin]
- inhibition at 100 µM [1, 2]: 9.3%
- inhibition at 500 µM [1, 3]: > 30%

Compound: COc1ccc(C2CC(=O)c3c(O)cc(OC4OC(COC5OC(C)C(O)C(O)C5O)C(O)C(O)C4O)cc3O2)cc1O (centres unmarked) [Hesperidin]
- inhibition at 100 µM [1, 4]: 0%
- inhibition at 500 µM ([1]; read-out: percentage of ACE inhibition, 500 µM flavonoid, purified lung ACE, 37°C, 30 min, mean of three experiments (Figure 2B)): 17%

Compound: COc1ccc(-c2cc(=O)c3c(O)cc(O)cc3o2)cc1O [Diosmetin]
- change of ACEI activity on structural change, vs. luteolin ([1]; 100 µM): −78%
- reduction of ACEI activity relative to luteolin ([1]; 100 µM): 78%
- inhibition at 100 µM [1, 2]: 12.5%

Compound: CC(=O)N[C@@H](CC(=O)O)C(=O)N[C@@H](Cc1ccccc1)P(=O)(O)C[C@@H](C)C(=O)N[C@@H](C)C(N)=O [RXP407]
- effect on blood pressure regulation (ACE N domain): no effect on blood pressure regulation

Compound: O=c1c(O)c(-c2ccc(O)c(O)c2)oc2cc(O)cc(O)c12 [Quercetin]
- change of ACEI activity on structural change, vs. luteolin ([1]; 100 µM): −44%
- inhibition at 100 µM [1, 4]: > 30%

Compound: O=C1C[C@@H](c2ccc(O)cc2)Oc2cc(O)cc(O)c21 [Naringenin]
- change of ACEI activity on structural change, vs. apigenin ([1]; 100 µM, compared with apigenin (Figure 3)): −91%
- reduction of ACEI activity vs. apigenin ([1]; 100 µM, vs. apigenin): 91%
- inhibition at 100 µM [1, 2]: 2.3%
- inhibition at 500 µM [1, 3]: 22.3%

Compound: Oc1cc(O)c2c(c1)O[C@H](c1ccc(O)c(O)c1)[C@H](O)C2 [Epicatechin]
- change of ACEI activity on structural change, vs. luteolin ([1]; 100 µM): −74%
- inhibition at 100 µM [1, 2]: 15%
- inhibition at 500 µM [1, 3]: > 30%

Next, values leading:

- change of ACEI activity on structural change, vs. luteolin ([1]; 100 µM): -36%
- inhibition at 100 µM [1, 2]: > 30%
- relative IC50 ratio [1]: 2.78
- IC50 [1]: 64 µM
Compound: C[C@@H]1O[C@@H](OC[C@H]2O[C@@H](Oc3c(-c4ccc(O)c(O)c4)oc4cc(O)cc(O)c4c3=O)[C@H](O)[C@@H](O)[C@@H]2O)[C@H](O)[C@H](O)[C@H]1O [Rutin, quercetin 3-O-glycoside]

- inhibition at 100 µM [1, 2]: 0.7%
- inhibition at 500 µM [1, 3]: > 30%
Compound: COc1ccc([C@@H]2CC(=O)c3c(O)cc(O)cc3O2)cc1O [Hesperetin]

- inhibition at 100 µM [1, 2]: 25.7%
- inhibition at 500 µM [1, 3]: > 30%
Compound: O=c1c(-c2ccc(O)cc2)coc2cc(O)cc(O)c12 [Genistein]

- inhibition at 100 µM [1, 2]: > 30%
- relative IC50 ratio [1]: 7.74
- increase in the IC50 relative to quercetin ([1]; relative to quercetin): 4 fold
- IC50 [1]: 178 µM
Compound: O=c1c(O)c(-c2ccc(O)cc2)oc2cc(O)cc(O)c12 [Kaempferol]

- relative IC50 ratio [1]: 1
- IC50 [1]: 23 µM
Compound: O=c1cc(-c2ccc(O)c(O)c2)oc2cc(O)cc(O)c12 [Luteolin]

- inhibition at 100 µM [1, 2]: > 30%
- relative IC50 ratio [1]: 7.96
- IC50 [1]: 183 µM
Compound: C[C@@H]1O[C@@H](O[C@H]2[C@H](Oc3cc(O)c4c(=O)cc(-c5ccc(O)cc5)oc4c3)O[C@H](CO)[C@@H](O)[C@@H]2O)[C@H](O)[C@H](O)[C@H]1O [Rhoifolin, apigenin 7-O-glycoside]

- inhibition at 100 µM [1, 2]: 4.5%
- inhibition at 500 µM [1, 3]: 23.3%
Compound: C[C@@H]1O[C@@H](O[C@H]2[C@H](Oc3cc(O)c4c(c3)O[C@H](c3ccc(O)cc3)CC4=O)O[C@H](CO)[C@@H](O)[C@@H]2O)[C@H](O)[C@H](O)[C@H]1O [Naringin]

Source: article PMC3504033, “Inhibition of Angiotensin-Converting Enzyme Activity by Flavonoids: Structure-Activity Relationship Studies” (PLoS ONE, 2012)
